Reference: patent US20120107916A1, “METHODS AND COMPOSITIONS FOR AFFECTING THE DIFFERENTIATION OF CLOSTRIDIA IN CULTURE” (priority 2009, published 2012)

Assays:
[1] = test system: C. beijerinckii NCIMB 8052; experiment: Growth (optical density at 600 nm) of sequential batch cultures; format: cell-based, Clostridium beijerinckii
Protocol: (§1) Bacterial strains and media. Clostridium acetobutylicum ATCC 824 and C. beijerinckii NCIMB 8052 are available from several commercial microbial culture collections including the American Type Culture Collection (ATCC), Manassas, Va., USA. The strains were grown at 30° C. or 37° C. in YE broth, which contained, per liter: 5.0 g yeast extract, 2.5 g casamino acids, 1.0 g L-asparagine, 0.5 g cysteine.HCl, 56 mg K2HPO4, 56 mg KH2PO4, 82 mg anhydrous MgSO4, 8 mg FeSO4.H2O, 6 mg MnSO4.H2O and 10 g glucose. Alternatively, strains were grown in YEPG broth, which was identical to YE expect that K2HPO4 and KH2PO4 were increased to 145 mg/L each and glucose was increased to 60 g/L. The pH of the media was adjusted to 7.2 using 45% KOH prior to sterilization by autoclaving. Media were solidified by addition of 1.5% Bacteriological Agar, Actimedia Manufacturers, Inc., Lansing, Mich. All cultures were grown in anaerobic conditions using the AnaeroPack System, Mitsubishi Gas Chemical Co., Inc., Japan, and GasPak EZ Gas Generating Sachets, Becton, Dickinson and Co., Sparks, Md. Spore stocks were kept at room temperature on agar-solidified media and were activated by suspending spores in 0.5 mL to 1.0 mL of medium followed by heating for 10 min at 80° C. before inoculation into growth medium.
(§2) Growth and pH measurements. Growth of bacterial cultures was measured spectrophotometrically using optical density at 600 nm and pH of cell-free culture supernatants was measured using a hand-held Shindengen ISFET pH Meter KS501, Shendengen Electric Manufacturing Co., Ltd., Bannockburn, Ill.
(§3) Effect of peptide SEQ ID NO:145 addition on sequential batch cultures of C. beijerinckii NCIMB 8052 grown at 30° C. Spores of C. beijerinckii NCIMB 8052 were germinated and grown overnight at 30° C. under anaerobic conditions in YEPG medium. After about 24 h of growth, […] of the culture was transferred (transfer 1) to each of four flasks that contained 10 mL of YEPG and either had no treatment or were treated with peptide SEQ ID NO:145 (see Table 8) at 1 nM, 10 nM or 50 nM. Thereafter, 75 μL of each culture was transferred, at the same time, every 24-48 h to 10 mL of fresh YEPG that contained the same peptide treatment or no treatment. Each culture was stopped after 96 hours of incubation and optical density, pH and ceric ion reactive chemicals were measured. Sequential batch culturing was continued through 6 transfers at which point all cultures appeared to be growing to the same extent (Table 12 and FIG. 4).
(§4) Effect of peptide SEQ ID NO:145 addition on sequential batch cultures of C. beijerinckii NCIMB 8052 grown at 37° C. Spores of C. beijerinckii NCIMB 8052 were germinated and grown overnight at 37° C. under anaerobic conditions in YEPG medium that either contained 50 nM of peptide SEQ ID NO:145 or no added peptide. After about 24 h of growth, 10 μL of the untreated culture was transferred (transfer 1) to each of two flasks that contained 10 mL of YEPG with either no treatment or with 50 nM peptide SEQ ID NO:145. At the same time, 10 μL of the culture that was germinated in the presence of peptide SEQ ID NO:145 was also transferred to 10 mL of YEPG that contained 50 nM of peptide SEQ ID NO:145. Thereafter, 10 μL of each culture was transferred, at the same time, every 24-48 h to 10 mL of fresh YEPG that contained the same peptide treatment or no treatment. Each culture was stopped after 72 hours of incubation and optical density, pH and ceric ion reactive chemicals were measured. Addition of peptide SEQ ID NO:145 appeared to have no effect on endpoint measurements of the growth of C. beijerinckii NCIMB 8052 after germination or during sequential transfers of cultures at 37° C. (Table 18 and FIG. 10). All three cultures stopped growing at the second transfer.

[2] = test system: C. beijerinckii NCIMB 8052; experiment: Final pH of cell-free culture supernatants of sequential batch cultures; format: cell-based, Clostridium beijerinckii
Protocol: as §1, §2, §3, §4

[3] = 1 nM peptide, transfer 1, 96 h, 30° C.
[4] = 1 nM peptide, transfer 2, 96 h, 30° C.
[5] = 1 nM peptide, transfer 3, 96 h, 30° C.
[6] = 1 nM peptide, transfer 4, 96 h, 30° C.
[7] = 1 nM peptide, transfer 5, 96 h, 30° C.
[8] = 1 nM peptide, transfer 6, 96 h, 30° C.
[9] = 10 nM peptide, transfer 1, 96 h, 30° C.
[10] = 10 nM peptide, transfer 2, 96 h, 30° C.
[11] = 10 nM peptide, transfer 3, 96 h, 30° C.
[12] = 10 nM peptide, transfer 4, 96 h, 30° C.
[13] = 10 nM peptide, transfer 5, 96 h, 30° C.
[14] = 10 nM peptide, transfer 6, 96 h, 30° C.
[15] = 50 nM peptide added after germination, transfer 1, 72 h, 37° C.
[16] = 50 nM peptide added after germination, transfer 2, 72 h, 37° C.
[17] = 50 nM peptide, transfer 1, 96 h, 30° C.
[18] = 50 nM peptide, transfer 2, 96 h, 30° C.
[19] = 50 nM peptide, transfer 3, 96 h, 30° C.
[20] = 50 nM peptide, transfer 4, 96 h, 30° C.
[21] = 50 nM peptide, transfer 5, 96 h, 30° C.
[22] = 50 nM peptide, transfer 6, 96 h, 30° C.
[23] = 50-50: germinated and transferred in 50 nM peptide, transfer 1, 72 h, 37° C.
[24] = 50-50: germinated and transferred in 50 nM peptide, transfer 2, 72 h, 37° C.
[25] = 50-50: spores germinated in 50 nM peptide, transfer 0 (germinated culture), 72 h, 37° C.

For “IRLIT (Derived from Clostridium beijerinckii SEQ ID NO: 141) [Peptide SEQ ID NO:145, pentapeptide from C. beijerinckii NCIMB 8052 locus Cbei_1065; chemically synthesized putative autoinducing peptide]”, the “Optical density at 600 nm of culture broths” value (shortened to “Optical density at 600 nm”) [1, 3] was 2.086, the “Optical density at 600 nm” value [1, 4] was 2.086 and the “Optical density at 600 nm” value [1, 5] was 2.106. The “Optical density at 600 nm” value [1, 6] was 2.115, the “Optical density at 600 nm” value [1, 7] was 2.090 and the “Optical density at 600 nm” value [1, 8] was 2.075. The “Optical density at 600 nm” value [1, 9] was 2.080, the “Optical density at 600 nm” value [1, 10] was 2.093 and the “Optical density at 600 nm” value [1, 11] was 2.078. For the same substance, the “Optical density at 600 nm” value [1, 12] was 2.108, the “Optical density at 600 nm” value [1, 13] was 2.069 and the “Optical density at 600 nm” value [1, 14] was 2.062. The “Optical density at 600 nm” value [1, 15] was 1.313, the “Optical density at 600 nm” value [1, 16] was 0.011 and the “Effect on endpoint measurements of growth after germination or during sequential transfers” value ([1]; 50 nM peptide, 37° C.) was “no effect”. For the same substance, the “Effect on germination and growth (visual observations through the course of growth)” value ([1]; 50 nM peptide, 37° C.) was “repressive effect”, the “Optical density at 600 nm” value [1, 17] was 2.102 and the “Optical density at 600 nm” value [1, 18] was 2.023. The “Optical density at 600 nm” value [1, 19] was 1.936, the “Optical density at 600 nm” value [1, 20] was 2.061 and the “Optical density at 600 nm” value [1, 21] was 2.120. The “Optical density at 600 nm” value [1, 22] was 2.046, the “Growth of treated cultures during incubation (data not shown)” value ([1]; 1-50 nM peptide, 96 h, 30° C.) was “slow the growth of the treated cultures during 96 h of incubation in a dose dependent manner” and the “Optical density at 600 nm” value [1, 23] was 1.420. The “Optical density at 600 nm” value [1, 24] was 0.011, the “Optical density at 600 nm” value [1, 25] was 1.158 and the “Number of times that cultures could be transferred in comparison with an untreated culture” value ([1]; through six culture transfers, 30° C.) was “did not affect”. For the same substance, the “Final pH of culture broths” value [2, 3] was 5.3, the “Final pH of culture broths” value [2, 4] was 5.3 and the “Final pH of culture broths” value [2, 5] was 5.1. The “Final pH of culture broths” value [2, 6] was 5.3, the “Final pH of culture broths” value [2, 7] was 5.3 and the “Final pH of culture broths” value [2, 8] was 5.3. For the same substance, the “Final pH of culture broths” value [2, 9] was 5.3, the “Final pH of culture broths” value [2, 10] was 5.3 and the “Final pH of culture broths” value [2, 11] was 5.0. The “Final pH of culture broths” value [2, 12] was 5.3, the “Final pH of culture broths” value [2, 13] was 5.4 and the “Final pH of culture broths” value [2, 14] was 5.3. The “Final pH of culture broths” value [2, 15] was 4.1, the “Final pH of culture broths” value [2, 16] was 6.5 and the “Effect on endpoint measurements of pH” value ([2]; 50 nM peptide, 37° C.) was “no apparent effect”. For the same substance, the “Final pH of culture broths” value [2, 17] was 5.4, the “Final pH of culture broths” value [2, 18] was 5.3 and the “Final pH of culture broths” value [2, 19] was 5.2. For the same substance, the “Final pH of culture broths” value [2, 20] was 5.3, the “Final pH of culture broths” value [2, 21] was 5.3 and the “Final pH of culture broths” value [2, 22] was 5.3. For the same substance, the “Final pH of culture broths” value [2, 23] was 4.1, the “Final pH of culture broths” value [2, 24] was 6.6 and the “Final pH of culture broths” value [2, 25] was 4.1.
